Experimental data reported in patent publication US11071300B2, “Pesticidally active pyrazole derivatives” (SYNGENTA PARTICIPATIONS AG, priority 2017, dated 2021).
Like-named read-outs stand apart in the source and are kept apart here.

Legend:
Type in all cases: in vivo
[1] = test system: Spodoptera littoralis; assay: Spodoptera littoralis (Egyptian cotton leaf worm) leaf disc test; details: foliar, 72 h, read-out: control (at least one of mortality, anti-feedant effect, growth inhibition); for percent control (mortality, anti-feedant effect or growth inhibition) at 200 ppm: application rate 200 ppm, cotton leaf discs sprayed, L1 larvae, 3 days after infestation
Method: Spodoptera littoralis (Egyptian Cotton Leaf Worm)
Cotton leaf discs were placed on agar in 24-well microtiter plates and sprayed with aqueous test solutions prepared from 10′000 ppm DMSO stock solutions. After drying the leaf discs were infested with five L1 larvae. The samples were assessed for mortality, anti-feedant effect, and growth inhibition in comparison to untreated samples 3 days after infestation. Control of Spodoptera littoralis by a test sample is when at least one of mortality, anti-feedant effect, and growth inhibition is higher than the untreated sample.

[2] = test system: Thrips tabaci; assay: Thrips tabaci (onion thrips) leaf disc test; details: foliar, 144 h, read-out: control (mortality)
Method: Thrips tabaci (Onion Thrips):
Sunflower leaf discs were placed on agar in 24-well microtiter plates and sprayed with aqueous test solutions prepared from 10′000 ppm DMSO stock solutions. After drying the leaf discs were infested with a thrips population of mixed ages. The samples were assessed for mortality 6 days after infestation.

[3] = test system: Plutella xylostella; assay: Plutella xylostella (diamond back moth) artificial diet test; details: 120 h, read-out: control (mortality and growth inhibition)
Method: Plutella xylostella (Diamond Back Moth):
24-well microtiter plates with artificial diet were treated with aqueous test solutions prepared from 10′000 ppm DMSO stock solutions by pipetting. After drying, the plates were infested with L2 larvae (10 to 15 per well). The samples were assessed for mortality and growth inhibition in comparison to untreated samples 5 days after infestation.

[4] = test system: Diabrotica Balteata; assay: Diabrotica balteata (corn root worm) maize sprout test; details: 96 h, read-out: control (mortality and growth inhibition)
Method: Diabrotica Balteata, (Corn Root Worm)
Maize sprouts, placed on an agar layer in 24-well microtiter plates were treated with aqueous test solutions prepared from 10′000 ppm DMSO stock solutions by spraying. After drying, the plates were infested with L2 larvae (6 to 10 per well). The samples were assessed for mortality and growth inhibition in comparison to untreated samples 4 days after infestation.

[5] = application rate 200 ppm, sunflower leaf discs sprayed, mixed ages, 6 days after infestation
[6] = application rate 200 ppm, artificial diet, L2 larvae, 5 days after infestation
[7] = application rate 200 ppm, maize sprouts sprayed, L2 larvae, 4 days after infestation

CN(C(=O)c1cc(-c2cc(-c3c(C(F)(F)F)c(OS(=O)(=O)C(F)(F)C(F)(F)C(F)(F)C(F)(F)F)nn3C)no2)ccc1Cl)C1(C#N)CC1 [Compound 43, [5-[5-[4-chloro-3-[(1-cyanocyclopropyl)-methyl-carbamoyl]phenyl]isoxazol-3-yl]-1-methyl-4-(trifluoromethyl)pyrazol-3-yl] 1,1,2,2,3,3,4,4,4-nonafluorobutane-1-sulfonate]
≥ 80%: percent control (mortality, anti-feedant effect or growth inhibition) at 200 ppm [1] | mortality at 200 ppm [2] | mortality at 200 ppm [3] | mortality at 200 ppm [4]

CN(C(=O)c1cc(-c2cnn(-c3c(C(F)(F)F)c(OS(=O)(=O)C(F)(F)C(F)(F)C(F)(F)C(F)(F)F)nn3C)c2)ccc1Cl)C1CC1 [Compound 15, [5-[4-[4-chloro-3-[cyclopropyl(methyl)carbamoyl]phenyl]pyrazol-1-yl]-1-methyl-4-(trifluoromethyl)pyrazol-3-yl] 1,1,2,2,3,3,4,4,4-nonafluorobutane-1-sulfonate]
≥ 80%: percent control (mortality, anti-feedant effect or growth inhibition) at 200 ppm [1] | mortality at 200 ppm [3] | mortality at 200 ppm [4]

CN(C(=O)c1cc(-c2cnn(-c3c(C(F)(F)F)c(OS(=O)(=O)C(F)(F)C(F)(F)C(F)(F)C(F)(F)F)nn3C)c2)cnc1Cl)C1(C#N)CC1 [Compound 31, [5-[4-[6-chloro-5-[(1-cyanocyclopropyl)-methyl-carbamoyl]-3-pyridyl]pyrazol-1-yl]-1-methyl-4-(trifluoromethyl)pyrazol-3-yl] 1,1,2,2,3,3,4,4,4-nonafluorobutane-1-sulfonate]
≥ 80%: percent control (mortality, anti-feedant effect or growth inhibition) at 200 ppm [1] | mortality at 200 ppm [2] | mortality at 200 ppm [3] | mortality at 200 ppm [4]

CN(C(=O)c1cc(-c2cnn(-c3c(C(F)(F)F)c(OS(=O)(=O)C(F)(F)C(F)(F)F)nn3C)c2)ccc1Cl)C1(C#N)CC1 [Compound 7, [5-[4-[4-chloro-3-[(1-cyanocyclopropyl)-methyl-carbamoyl]phenyl]pyrazol-1-yl]-1-methyl-4-(trifluoromethyl)pyrazol-3-yl] 1,1,2,2,2-pentafluoroethanesulfonate]
≥ 80%: percent control (mortality, anti-feedant effect or growth inhibition) at 200 ppm [1] | mortality at 200 ppm [2, 5] | mortality at 200 ppm [3, 6] | mortality at 200 ppm [4, 7]

CN(C(=O)c1cc(-c2cnn(-c3c(C(F)(F)F)c(OS(=O)(=O)C(F)(F)C(F)(F)F)nn3C)c2)ccc1Cl)C1CC1 [Compound 16, [5-[4-[4-chloro-3-[cyclopropyl(methyl)carbamoyl]phenyl]pyrazol-1-yl]-1-methyl-4-(trifluoromethyl)pyrazol-3-yl] 1,1,2,2,2-pentafluoroethanesulfonate]
≥ 80%: percent control (mortality, anti-feedant effect or growth inhibition) at 200 ppm [1] | mortality at 200 ppm [3, 6] | mortality at 200 ppm [4, 7]

CCN(C(=O)c1cc(-c2cc(-c3c(C(F)(F)F)c(OS(=O)(=O)C(F)(F)C(F)(F)C(F)(F)C(F)(F)F)nn3C)no2)ccc1Cl)C1(C#N)CC1 [Compound 44, [5-[5-[4-chloro-3-[(1-cyanocyclopropyl)-ethyl-carbamoyl]phenyl]isoxazol-3-yl]-1-methyl-4-(trifluoromethyl)pyrazol-3-yl] 1,1,2,2,3,3,4,4,4-nonafluorobutane-1-sulfonate]
≥ 80%: percent control (mortality, anti-feedant effect or growth inhibition) at 200 ppm [1] | mortality at 200 ppm [3]

CN(C(=O)c1cc(-c2cnn(-c3c(C(F)(F)F)c(OS(=O)(=O)C(F)(F)C(F)(F)Cl)nn3C)c2)ccc1Cl)C1CC1 [Compound 11, [5-[4-[4-chloro-3-[cyclopropyl(methyl)carbamoyl]phenyl]pyrazol-1-yl]-1-methyl-4-(trifluoromethyl)pyrazol-3-yl] 2-chloro-1,1,2,2-tetrafluoro-ethanesulfonate]
≥ 80%: percent control (mortality, anti-feedant effect or growth inhibition) at 200 ppm [1] | mortality at 200 ppm [2, 5] | mortality at 200 ppm [3, 6] | mortality at 200 ppm [4, 7]

Cn1nc(OS(=O)(=O)C(F)(F)C(F)(F)C(F)(F)C(F)(F)F)c(C(F)(F)F)c1-c1cc(-c2ccc(Cl)c(C(=O)NC3CC3)c2)on1 [Compound 39, [5-[5-[4-chloro-3-(cyclopropylcarbamoyl)phenyl]isoxazol-3-yl]-1-methyl-4-(trifluoromethyl)pyrazol-3-yl] 1,1,2,2,3,3,4,4,4-nonafluorobutane-1-sulfonate]
≥ 80%: mortality at 200 ppm [3] | mortality at 200 ppm [4]

CCN(C(=O)c1cc(-c2cnn(-c3c(C(F)(F)F)c(OS(=O)(=O)C(F)(F)C(F)(F)C(F)(F)C(F)(F)F)nn3C)c2)ccc1Cl)C1CC1 [Compound 13, [5-[4-[4-chloro-3-[cyclopropyl(ethyl)carbamoyl]phenyl]pyrazol-1-yl]-1-methyl-4-(trifluoromethyl)pyrazol-3-yl] 1,1,2,2,3,3,4,4,4-nonafluorobutane-1-sulfonate]
≥ 80%: percent control (mortality, anti-feedant effect or growth inhibition) at 200 ppm [1] | mortality at 200 ppm [2] | mortality at 200 ppm [3] | mortality at 200 ppm [4]

Cn1nc(OS(=O)(=O)F)c(C(F)(F)F)c1-n1cc(-c2ccc(Cl)c(C(=O)NC3CC3)c2)cn1 [Compound 4, 5-[4-[4-chloro-3-(cyclopropylcarbamoyl)phenyl]pyrazol-1-yl]-3-fluorosulfonyloxy-1-methyl-4-(trifluoromethyl)pyrazole]
≥ 80%: mortality at 200 ppm [1]

Cn1nc(OS(=O)(=O)C(F)(F)C(F)(F)C(F)(F)C(F)(F)F)c(C(F)(F)F)c1-n1cc(-c2cnc(Cl)c(C(=O)NC3(C#N)CC3)c2)cn1 [Compound 30, [5-[4-[6-chloro-5-[(1-cyanocyclopropyl)carbamoyl]-3-pyridyl]pyrazol-1-yl]-1-methyl-4-(trifluoromethyl)pyrazol-3-yl] 1,1,2,2,3,3,4,4,4-nonafluorobutane-1-sulfonate]
≥ 80%: percent control (mortality, anti-feedant effect or growth inhibition) at 200 ppm [1] | mortality at 200 ppm [3] | mortality at 200 ppm [4]

CN(C(=O)c1cc(-c2cnn(-c3c(C(F)(F)F)c(OS(=O)(=O)C(F)(F)C(F)(F)C(F)(F)C(F)(F)F)nn3C)c2)cnc1Cl)C1CC1 [Compound 28, [5-[4-[6-chloro-5-[cyclopropyl(methyl)carbamoyl]-3-pyridyl]pyrazol-1-yl]-1-methyl-4-(trifluoromethyl)pyrazol-3-yl] 1,1,2,2,3,3,4,4,4-nonafluorobutane-1-sulfonate]
≥ 80%: percent control (mortality, anti-feedant effect or growth inhibition) at 200 ppm [1] | mortality at 200 ppm [2] | mortality at 200 ppm [3] | mortality at 200 ppm [4]
